Like-named read-outs stand apart in the source and are kept apart here.
Assays:
[1] = Solubility of salts in water (HPLC); format: physicochemical
Procedure: The formulator can determine the solubility of the pharmaceutically acceptable salts of the disclosed inhibitors by any method desirable. The following is a non-limiting example of a procedure for evaluating the solubility of a salt of a disclosed inhibitor. A suspension of tert-butyl-{[1-(4-chlorobenzyl)-3-hydroxy-2-oxo-1,2-dihydropyridin-4-yl]methyl}-piperazine-1-carboxylate methanesulfonate (26.6 mg) in distilled deionized water (3.0 mL) is sonicated for 20 min with water bath temperature under 25° C. The suspension is filtered to remove any insoluble salt. The clear filtrate solution (200 μL) is diluted with distilled deionized water (800 μL) and subjected to HPLC analysis. The following are results for the pharmaceutically acceptable salts outlined in Table VII above.

[2] = tested on: phosphoglycerate kinase (PGK) expression; assay: PGK expression in murine embryonic fibroblasts; format: cell-based; conditions: wild type murine embryonic fibroblasts; 1 μM, 10 μM (FIG. 12)
Procedure: FIG. 11 depicts the up regulation of phosphoglycerate kinase (PGK) expression in wild type murine embryonic fibroblasts as a result of treatment with compound a compound disclosed in Table VIII at dosages of 1 μM (E), 10 μM (F), and 50 μM (G) vs. wild type control (H) and the lack of up regulation of PGK expression in HIF-1 knock out cells as a result of treatment with a compound disclosed in Table VIII at dosages of 1 μM (A), 10 μM (B), and 50 μM (C) and HIF-1 knock out control (D). Both cell types were treated for 7 hours.

Compound: CC(C)(C)OC(=O)N1CCN(Cc2ccn(Cc3ccc(Cl)cc3)c(=O)c2O)CC1 [Compound A41, tert-butyl 4-{[1-(4-chlorobenzyl)-3-hydroxy-2-oxo-1,2-dihydropyridin-4-yl]methyl}piperazine-1-carboxylate]
- Solubility ([1]; distilled deionized water, sonicated 20 min, under 25° C., HPLC, listed as Free base): ~1 µg/mL

Compound: O=c1c(O)cccn1Cc1cccc(Cl)c1 [Compound F2, 1-(3-chlorobenzyl)-3-hydroxypyridin-2(1H)-one]
- up regulation of phosphoglycerate kinase (PGK) expression [2]: up regulation

Compound: CC(C)(C)OC(=O)N1CCN(Cc2ccn(Cc3ccc(Cl)cc3)c(=O)c2O)CC1 [hydrogensulfonate, tert-butyl-{[1-(4-chlorobenzyl)-3-hydroxy-2-oxo-1,2-dihydropyridin-4-yl]methyl}-piperazine-1-carboxylate]
- Solubility [1]: 13200 µg/mL

Reference: patent publication US9278930B2, “Methods for increasing the stabilization of hypoxia inducible factor-α” (Aerpio Therapeutics Inc., priority 2009, dated 2016)
